Numbers after ± are expanded uncertainties.
Test: xn = mol fraction of the nth substance listed
Conditions: 101 kPa, Liquid

COc1cc2c(cc1O)CC1c3c(cc(O)c(OC)c3-2)CCN1C (stereo not given) [boldine] + CC(C)O
mass density (283.15 K, x1 = 0.00187): 796.84 ± 0.73 kg/m3 | mass density (283.15 K, x1 = 0.00371): 800.29 ± 0.73 kg/m3 | mass density (283.15 K, x1 = 0.00563): 803.77 ± 0.72 kg/m3 | mass density (283.15 K, x1 = 0.00735): 807.03 ± 0.72 kg/m3 | mass density (283.15 K, x1 = 0.00957): 810.42 ± 0.71 kg/m3 | mass density (283.15 K, x1 = 0.01158): 814.44 ± 0.71 kg/m3 | mass density (283.15 K, x1 = 0.01364): 818.2 ± 0.7 kg/m3 | mass density (288.15 K, x1 = 0.00187): 792.75 ± 0.74 kg/m3 | mass density (288.15 K, x1 = 0.00371): 796.21 ± 0.73 kg/m3 | mass density (288.15 K, x1 = 0.00563): 799.68 ± 0.73 kg/m3 | mass density (288.15 K, x1 = 0.00735): 802.94 ± 0.72 kg/m3 | mass density (288.15 K, x1 = 0.00957): 806.37 ± 0.72 kg/m3 | mass density (288.15 K, x1 = 0.01158): 810.34 ± 0.71 kg/m3 | mass density (288.15 K, x1 = 0.01364): 814.09 ± 0.71 kg/m3 | mass density (293.15 K, x1 = 0.00187): 788.61 ± 0.75 kg/m3 | mass density (293.15 K, x1 = 0.00371): 792.06 ± 0.74 kg/m3 | mass density (293.15 K, x1 = 0.00563): 795.53 ± 0.74 kg/m3 | mass density (293.15 K, x1 = 0.00735): 798.79 ± 0.73 kg/m3 | mass density (293.15 K, x1 = 0.00957): 802.25 ± 0.72 kg/m3 | mass density (293.15 K, x1 = 0.01158): 806.19 ± 0.72 kg/m3 | mass density (293.15 K, x1 = 0.01364): 809.91 ± 0.71 kg/m3 | mass density (298.15 K, x1 = 0.00187): 784.39 ± 0.75 kg/m3 | mass density (298.15 K, x1 = 0.00371): 787.84 ± 0.75 kg/m3 | mass density (298.15 K, x1 = 0.00563): 791.32 ± 0.74 kg/m3 | mass density (298.15 K, x1 = 0.00735): 794.57 ± 0.74 kg/m3 | mass density (298.15 K, x1 = 0.00957): 798.05 ± 0.73 kg/m3 | mass density (298.15 K, x1 = 0.01158): 801.97 ± 0.73 kg/m3 | mass density (298.15 K, x1 = 0.01364): 805.66 ± 0.72 kg/m3 | mass density (303.15 K, x1 = 0.00187): 780.11 ± 0.76 kg/m3 | mass density (303.15 K, x1 = 0.00371): 783.56 ± 0.75 kg/m3 | mass density (303.15 K, x1 = 0.00563): 787.04 ± 0.75 kg/m3 | mass density (303.15 K, x1 = 0.00735): 790.29 ± 0.74 kg/m3 | mass density (303.15 K, x1 = 0.00957): 793.78 ± 0.74 kg/m3 | mass density (303.15 K, x1 = 0.01158): 797.69 ± 0.73 kg/m3 | mass density (303.15 K, x1 = 0.01364): 801.36 ± 0.73 kg/m3 | mass density (308.15 K, x1 = 0.00187): 775.77 ± 0.77 kg/m3 | mass density (308.15 K, x1 = 0.00371): 779.22 ± 0.76 kg/m3 | mass density (308.15 K, x1 = 0.00563): 782.69 ± 0.76 kg/m3 | mass density (308.15 K, x1 = 0.00735): 785.94 ± 0.75 kg/m3 | mass density (308.15 K, x1 = 0.00957): 789.45 ± 0.75 kg/m3 | mass density (308.15 K, x1 = 0.01158): 793.35 ± 0.74 kg/m3 | mass density (308.15 K, x1 = 0.01364): 797.01 ± 0.73 kg/m3 | mass density (313.15 K, x1 = 0.00187): 771.34 ± 0.77 kg/m3 | mass density (313.15 K, x1 = 0.00371): 774.79 ± 0.77 kg/m3 | mass density (313.15 K, x1 = 0.00563): 778.25 ± 0.76 kg/m3 | mass density (313.15 K, x1 = 0.00735): 781.51 ± 0.76 kg/m3 | mass density (313.15 K, x1 = 0.00957): 785.03 ± 0.75 kg/m3 | mass density (313.15 K, x1 = 0.01158): 788.91 ± 0.75 kg/m3 | mass density (313.15 K, x1 = 0.01364): 792.59 ± 0.74 kg/m3 | mass density (318.15 K, x1 = 0.00187): 766.8 ± 0.78 kg/m3 | mass density (318.15 K, x1 = 0.00371): 770.26 ± 0.78 kg/m3 | mass density (318.15 K, x1 = 0.00563): 773.72 ± 0.77 kg/m3 | mass density (318.15 K, x1 = 0.00735): 776.98 ± 0.77 kg/m3 | mass density (318.15 K, x1 = 0.00957): 780.51 ± 0.76 kg/m3 | mass density (318.15 K, x1 = 0.01158): 784.38 ± 0.75 kg/m3 | mass density (318.15 K, x1 = 0.01364): 788.09 ± 0.75 kg/m3 | mass density (323.15 K, x1 = 0.00187): 762.17 ± 0.79 kg/m3 | mass density (323.15 K, x1 = 0.00371): 765.62 ± 0.78 kg/m3 | mass density (323.15 K, x1 = 0.00563): 769.08 ± 0.78 kg/m3 | mass density (323.15 K, x1 = 0.00735): 772.35 ± 0.77 kg/m3 | mass density (323.15 K, x1 = 0.00957): 775.88 ± 0.77 kg/m3 | mass density (323.15 K, x1 = 0.01158): 779.76 ± 0.76 kg/m3 | mass density (323.15 K, x1 = 0.01364): 783.56 ± 0.76 kg/m3 | mass density (328.15 K, x1 = 0.00187): 757.42 ± 0.8 kg/m3 | mass density (328.15 K, x1 = 0.00371): 760.87 ± 0.79 kg/m3 | mass density (328.15 K, x1 = 0.00563): 764.34 ± 0.79 kg/m3 | mass density (328.15 K, x1 = 0.00735): 767.61 ± 0.78 kg/m3 | mass density (328.15 K, x1 = 0.00957): 771.14 ± 0.78 kg/m3 | mass density (328.15 K, x1 = 0.01158): 775.02 ± 0.77 kg/m3 | mass density (328.15 K, x1 = 0.01364): 778.85 ± 0.76 kg/m3 | mass density (333.15 K, x1 = 0.00187): 752.55 ± 0.81 kg/m3 | mass density (333.15 K, x1 = 0.00371): 756.01 ± 0.8 kg/m3 | mass density (333.15 K, x1 = 0.00563): 759.48 ± 0.79 kg/m3 | mass density (333.15 K, x1 = 0.00735): 762.75 ± 0.79 kg/m3 | mass density (333.15 K, x1 = 0.00957): 766.27 ± 0.78 kg/m3 | mass density (333.15 K, x1 = 0.01158): 770.17 ± 0.78 kg/m3 | mass density (333.15 K, x1 = 0.01364): 773.99 ± 0.77 kg/m3

COc1cc2c(cc1O)CC1c3c(cc(O)c(OC)c3-2)CCN1C (stereo not given) [boldine] + CCCCCCCCO
mass density (283.15 K, x1 = 0.00398): 835.34 ± 0.54 kg/m3 | mass density (283.15 K, x1 = 0.00806): 838.57 ± 0.53 kg/m3 | mass density (283.15 K, x1 = 0.01216): 842.06 ± 0.53 kg/m3 | mass density (288.15 K, x1 = 0.00398): 831.91 ± 0.54 kg/m3 | mass density (288.15 K, x1 = 0.00806): 835.14 ± 0.54 kg/m3 | mass density (288.15 K, x1 = 0.01216): 838.62 ± 0.53 kg/m3 | mass density (293.15 K, x1 = 0.00398): 828.46 ± 0.55 kg/m3 | mass density (293.15 K, x1 = 0.00806): 831.68 ± 0.55 kg/m3 | mass density (293.15 K, x1 = 0.01216): 835.16 ± 0.54 kg/m3 | mass density (298.15 K, x1 = 0.00398): 825 ± 0.56 kg/m3 | mass density (298.15 K, x1 = 0.00806): 828.21 ± 0.55 kg/m3 | mass density (298.15 K, x1 = 0.01216): 831.68 ± 0.55 kg/m3 | mass density (303.15 K, x1 = 0.00398): 821.52 ± 0.56 kg/m3 | mass density (303.15 K, x1 = 0.00806): 824.72 ± 0.56 kg/m3 | mass density (303.15 K, x1 = 0.01216): 828.18 ± 0.55 kg/m3 | mass density (308.15 K, x1 = 0.00398): 818.01 ± 0.57 kg/m3 | mass density (308.15 K, x1 = 0.00806): 821.21 ± 0.57 kg/m3 | mass density (308.15 K, x1 = 0.01216): 824.66 ± 0.56 kg/m3 | mass density (313.15 K, x1 = 0.00398): 814.49 ± 0.58 kg/m3 | mass density (313.15 K, x1 = 0.00806): 817.68 ± 0.57 kg/m3 | mass density (313.15 K, x1 = 0.01216): 821.12 ± 0.57 kg/m3 | mass density (318.15 K, x1 = 0.00398): 810.93 ± 0.58 kg/m3 | mass density (318.15 K, x1 = 0.00806): 814.12 ± 0.58 kg/m3 | mass density (318.15 K, x1 = 0.01216): 817.55 ± 0.57 kg/m3 | mass density (323.15 K, x1 = 0.00398): 807.34 ± 0.59 kg/m3 | mass density (323.15 K, x1 = 0.00806): 810.52 ± 0.59 kg/m3 | mass density (323.15 K, x1 = 0.01216): 813.96 ± 0.58 kg/m3 | mass density (328.15 K, x1 = 0.00398): 803.73 ± 0.6 kg/m3 | mass density (328.15 K, x1 = 0.00806): 806.9 ± 0.59 kg/m3 | mass density (328.15 K, x1 = 0.01216): 810.33 ± 0.59 kg/m3 | mass density (333.15 K, x1 = 0.00398): 800.08 ± 0.61 kg/m3 | mass density (333.15 K, x1 = 0.00806): 803.24 ± 0.6 kg/m3 | mass density (333.15 K, x1 = 0.01216): 806.66 ± 0.59 kg/m3
